In test [1] the test system is BN rat DNCB repetitive application dermatitis model. The experiment in a line: Suppressive action on BN rat DNCB repetitive application dermatitis model. Format: in vivo. The settings on record: dose 2 mg/kg, oral once a day; AUC of ear thickness increase vs solvent control; male BN rat. Here is the method:
Suppressive Action on BN Rat DNCB Repetitive Application Dermatitis Model
A 8-week-old male rat was sensitized by applying 30 μL of 1.5 wt % solution of dinitrochlorobenzene (DNCB) dissolved in acetone:olive oil=4:1 solution to the right ear on day 1 and 3 days later. Starting from one week thereafter, the same solution was consecutively applied to the right ear every other day in total of 6 times, whereby chronic dermatitis was induced in which the skin thickness increases with time. As for the level of dermatitis, the thickness was measured with a dial gauge thickness before application of the solution, and expressed by the difference from the measured thickness of the right ear immediately before induction on day 1 of the induction. The drug was suspended in 0.5 wt % tragacanth, and orally administered once a day immediately before induction on day 1 of the induction and after 24 hr value measurement the next day. The changes in the ear tumentia with time were monitored, and the area under the curve in a graph showing the values up to 48 hr after the final induction was calculated, from which the percent suppression relative to the area of the solvent control group was determined. As a comparison control compound, prednisolone, which is a steroid, was used.

In test [2] the test system is TMA (trimellitic anhydride) repetitive application dermatitis model. In words: Suppressive action on TMA (trimellitic anhydride) repetitive application dermatitis model. It counts as in vivo, mice. The settings on record: for inhibition in vivo at 20 mg/kg: Mus musculus, 8 h, oral twice (30 min before and 4 hr after induction), ear thickness vs solvent control, male BALB/c mice, read-out: right ear suppression (%) at 8 hr after final induction.

Experimental findings from patent US20100179118A1, “CYCLIC AMINOALKYLCARBOXAMIDE DERIVATIVE” (DAINIPPON SUMITOMO PHARMA CO., LTD., priority 2006, published 2010) are described below.

With `C[C@]12C=CC(=O)C=C1CC[C@@H]1[C@@H]2[C@@H](O)C[C@@]2(C)[C@H]1CC[C@]2(O)C(=O)CO` [prednisolone, reference compound], the “suppression (%) at 48 hr after final induction” value in test [1] is recorded as 44.0%. Also, the inhibition in vivo at 20 mg/kg in test [2] was 67.8%.
For `O=C(O)c1cccc(N(C(=O)CN2CCCC2)C2CCN(C(=O)c3ccc(C(F)(F)F)cc3)CC2)c1` [Example 227, N-(3-carboxylphenyl)-2-(pyrrolidin-1-yl)-N-[1-(4-trifluoromethylbenzoyl)piperidin-4-yl]acetamide], the “right ear suppression (%) at 8 hr after final induction” value in test [2] (mouse, in vivo, po, 80 mg/kg) is given as 57.2%.
Turning to `O=C(c1ccc(Cl)cc1)N1CCC(N(C(=O)CN2CCOCC2)C2CCCCC2)CC1` [Example 65, N-[1-(4-chlorobenzoyl)piperidin-4-yl]-N-cyclohexyl-2-(morpholin-4-yl)acetamide], the “suppression (%) at 48 hr after final induction” value in test [1] is listed as 20.5%. Moreover, the inhibition in vivo at 20 mg/kg in test [2] turned out to be 41%.
